Reference: ChEMBL document CHEMBL2407029 (Bioorg Med Chem Lett, 2013)
pKd, pKi: −log10 of the molar value. Square brackets hold non-standard residues; d marks the D form. Peptide text beside a SMILES is read from it. Phe(4-I) = N[C@@H](Cc1ccc(I)cc1)C(=O)O

Key:
[1] = (§1) Binding affinity to opioid receptor in CD-1 mouse brain after 90 mins; conditions: read-out: Kd(app)
[2] = Displacement of [131I]-[D-Ala2,4'-I-Phe8]alpha-Neoendorphin from opioid receptor in CD-1 mouse brain after 90 mins by competitive binding assay; assay type: tissue-based
[3] = molecular target: Kappa-type opioid receptor (Homo sapiens, UniProt P41145); assay: Displacement of [125]IBNtxA from KOR-1 (unknown origin) transfected in CHO cells after 90 mins by competitive binding assay; assay type: cell-based
[4] = molecular target: Delta-type opioid receptor (Homo sapiens, UniProt P41143); assay: Displacement of [125]IBNtxA from DOR-1 (unknown origin) transfected in CHO cells after 90 mins by competitive binding assay; assay type: cell-based
Mus musculus = species: Mus musculus; assay: as §1; conditions: tested as the 131I-labelled form

| Compound | pKi [2] | also measured |
| --- | --- | --- |
| CC(C)C[C@H](NC(=O)[C@H](Cc1ccccc1)NC(=O)CNC(=O)[C@@H](C)NC(=O)[C@@H](N)Cc1ccc(O)cc1)C(=O)N[C@@H](CCCNC(=N)N)C(=O)N[C@@H](CCCCN)C(=O)N[C@@H](Cc1ccc([131I])cc1)C(=O)N1CCC[C@H]1C(=O)N[C@@H](CCCCN)C(=O)O |  | pKd [1]: 7.96 |
| CC(C)C[C@H](NC(=O)[C@H](Cc1ccccc1)NC(=O)CNC(=O)CNC(=O)[C@@H](N)Cc1ccc(O)cc1)C(=O)N[C@@H](CCCNC(=N)N)C(=O)N[C@@H](CCCCN)C(=O)N[C@@H](Cc1ccc(O)cc1)C(=O)N1CCC[C@H]1C(=O)N[C@@H](CCCCN)C(=O)O (H-YGGFLRKYPK-OH) | 8.01 | pKi [3]: 8.62; pKi [4]: 8.77 |
| CC(C)C[C@H](NC(=O)[C@H](Cc1ccccc1)NC(=O)CNC(=O)[C@@H](C)NC(=O)[C@@H](N)Cc1ccc(O)cc1)C(=O)N[C@@H](CCCNC(=N)N)C(=O)N[C@@H](CCCCN)C(=O)N[C@@H](Cc1ccc(I)cc1)C(=O)N1CCC[C@H]1C(=O)N[C@@H](CCCCN)C(=O)O (H-Y[dA]GFLRK[Phe(4-I)]PK-OH) |  | Bmax (Mus musculus): 465 fmol/mg |
| C[C@@H](NC(=O)[C@@H](N)Cc1ccc(O)cc1)C(=O)NCC(=O)N(C)[C@@H](Cc1ccccc1)C(=O)NCCO [DAMGO] | 8.85 |  |
| CC[C@H](C)[C@H](NC(=O)[C@H](CCCNC(=N)N)NC(=O)[C@H](CCCNC(=N)N)NC(=O)[C@H](CC(C)C)NC(=O)[C@H](Cc1ccccc1)NC(=O)CNC(=O)CNC(=O)[C@@H](N)Cc1ccc(O)cc1)C(=O)N[C@@H](CCCNC(=N)N)C(=O)N1CCC[C@H]1C(=O)N[C@@H](CCCCN)C(=O)N[C@@H](CC(C)C)C(=O)N[C@@H](CCCCN)C(=O)N[C@@H](Cc1c[nH]c2ccccc12)C(=O)N[C@@H](CC(=O)O)C(=O)N[C@@H](CC(N)=O)C(=O)N[C@@H](CCC(N)=O)C(=O)O [DYNORPHIN A (1-17)] | 8.26 |  |
| CC(C)C[C@H](NC(=O)[C@H](Cc1ccccc1)NC(=O)CNC(=O)CNC(=O)[C@@H](N)Cc1ccc(O)cc1)C(=O)N[C@@H](CCCNC(=N)N)C(=O)N[C@@H](CCCNC(=N)N)C(=O)N[C@@H](CCC(N)=O)C(=O)N[C@@H](Cc1ccccc1)C(=O)N[C@@H](CCCCN)C(=O)N[C@H](C(=O)N[C@H](C(=O)N[C@H](C(=O)O)[C@@H](C)O)C(C)C)C(C)C [DYNORPHIN B] | 8.17 |  |
